Experiment [1] has as its system distal colitis induced by peptidoglycan/polysaccharide (PG/PS). Put plainly: PG/PS-induced acute and chronic distal colitis in rats. It counts as in vivo, Female Lewis rats. On the procedure:
For these reasons, a model of acute and chronic distal colitis in rats was developed based upon a previously published method in which purified bacterial cell wall polymers (derived from Group A streptococci) are injected intramurally into the distal colon of genetically-susceptible rats. Sartor et al., “Granulomatus Entercolitis Induced by Purified Bacterial Cell Wall Fragments”, GASTROENTEROLOGY, Vol. 89, pages 587-595 (1985). This model produces an acute and chronic inflammation characterized by the infiltration of large numbers of inflammatory cells, enhanced mucosal permeability, interstitial fibrosis, and mucosal thickening as well as the extraintestinal manifestations of arthritis, hepatic and splenic granulomas. Unlike most models of colitis, the inflammation induced in this model promoting mucosal and submucosal injury rather than the injury causing the inflammation.
In Experiment 2 the objectives were: (a) to determine whether this model of colitis responds to sulfasalazine (SAZ) and (b) to assess the effects of specially formulated enteral diets on the injury and inflammation observed in the colon, liver and spleen.
Female Lewis rats (150-175 g) were maintained in a controlled temperature and light-dark cycle (12 hours:12 hours) and housed in wire-mesh bottomed cages and given water and standard laboratory rat chow ad libitum. A total of 48 rats were divided into 6 groups of 8 rats each consisting of a sham (rats receiving Diet #1 {base diet} with no peptidoglycan/polysaccharide {PG/PS} injection) control group, a chow group and 4 groups of rats placed on 4 different polymeric diets (Table 6). Rats received either chow or polymeric diets (320 kcals/kg/day or 60 mL of liquid diet/day) for 7 days preceding induction of colitis. Distal colitis was induced by a modification of the method of Sartor et al in which multiple sites (8-9) along the distal colon were injected intramurally with 60 ul/site to deliver a dose of peptidoglycan/polysaccharide (PG/PS) of 12.5 ug/g body weight. The albumin (sham) control group received the same number of injections of human serum albumin into the distal colon.
Total dietary intake and body weights of the control and liquid diet groups were recorded for each 24 hour period during the course of the 4 week experiment (1 week prior to the induction of colitis and 3 weeks following PG/PS or albumin injection).
To assess the effects of SAZ in this model, female Lewis rats were orally administered SAZ immediately following the induction of colitis. Rats were given chow ad libitum for the duration of the four week study period. Similar measurements were assessed as described below.
All rats receiving nutritional therapy or SAZ were euthanized with an overdose of pentobarbital and the distal colon and cecum were excised and opened longitudinally. The length and weight of the perfused segment were recorded and the tissue divided longitudinally into three strips for wet-to-dry ratios, histology and myeloperoxidase (MPO) determinations. Colonic MPO activity was determined in which 3,3′ 5,5′ tetramethylbenzidine was used as the electron donating substrate and hexadecyltrimethylammonium hydroxide was used as the detergent. Spleen and liver weights were recorded. Circulating levels of nitrate and nitrite were also quantified using the Griess reagent and used as indices of immune system activation (i.e. activation of the reticuloendothelial system {nitric oxide synthase}). The studies were analyzed as a completely randomized design. Treatment differences were separated using an F-protected least significant difference (LSD) method. In both studies additional chow fed control animals that were treated under laboratory conditions described above were incorporated in the statistical analysis.

Experiment [2] deals with active ulcerative colitis. Particulars: dietary supplementation; cited from earlier work.
The mark [3] stands for this setting: SAZ orally from induction of colitis, chow fed PG/PS rats, least square means.
Where [4] appears, read: oral SAZ vs PG/PS treated animals and sham control.
[5] abbreviates: oral SAZ vs chow fed group receiving PG/PS.

Marks after values point to notes of the source that are not given here.

Take `O=C(O)c1cc(/N=N/c2ccc(S(=O)(=O)Nc3ccccn3)cc2)ccc1O` [SAZ, sulfasalazine]: in experiment [1] (setting [3]), the “COLON WT” value was “.021 ± .004^a,b g dry wt/cm”, the Liver wt is 34.0 ± 3.6^b mg/g bw, the “MPO ACTIVITY” value is recorded as 1.40 ± 2.9^b units/cm colon and the Spleen wt is on record as 2.92 ± 1.3^b mg/g bw. Besides, in experiment [1] (setting [4]), the “liver weight, in words” value is “significantly lower than the PG/PS treated animals and comparable to the sham control”; the “spleen weight, in words” value is “significantly lower than the PG/PS treated animals and comparable to the sham control”. Also, in experiment [1] (setting [5]), the “colon weight, in words” value is given as “tended to reduce” and the “increases in MPO activity, in words” value is “significantly attenuated”. Moreover, in experiment [1] (oral SAZ, PG/PS colitis), the “histological inspection of the SAZ-treated tissue” value was “inhibition of leukocyte infiltration and fibrosis”.
Turning to vitamin E, the “eicosanoid levels from rectal dialysate fluid” value in experiment [2] is listed as “not to promote changes”.

Source of the values: US6468987B1, “Nutritional product for a person having ulcerative colitis” (Abbott Laboratories, priority 1994, dated 2002).
